Laboratory results: patent publication US20260097083A1, “METHOD FOR PRODUCING PANCREATIC ENDODERM CELLS” (Kyoto University, priority 2022, published 2026)

Columns and labels:
[1] = test system: NKX6.1-positive pancreatic endoderm cells derived from human iPS cells; experiment: Screening of senescence-related reagents; assay type: cell-based
Description: FIG. 2-A A schematic diagram illustrating senescence-related reagent screening. […] After the elapse of one week, the cells were counted under a fluorescence microscope. Cells were differentiated to a pancreatic endoderm cell level using a stepwise differentiation-inducing method, and were then re-seeded on a 24-well plate at 2×10^5/well. The following culture media were added to these cultured cells, and the cells were cultured for 1 week. […] After fixed using 4% PFA, the cells were subjected to β-gal staining and NKX6.1 antibody immunostaining, and fluorescently stained images were acquired using BZ-800 (Keyence). The number of NKX6.1-positive cells, the NKX6.1-positive ratio, and the β-gal-positive ratio were calculated using the BZ-[…]/Macro Cell Count function of that microscope. FIGS. 2-A and 3-A show the outline of this procedure. A reagent enabling proliferation of pancreatic endoderm cells derived from human iPS cells was searched for in the senescence-related reagents. […] Then, (1) the number of NKX6.1-positive cells, or (2) the ratio of NKX6.1-positive cells and the ratio of β gal-positive cells were measured after the culture. FIGS. 2-B to 2-D show the results.

[2] = test system: pancreatic endoderm cells derived from ES cells (KhES-3 line); experiment: Expansion culture of pancreatic endoderm cells derived from ES cells; assay type: cell-based, human
Description: PDX1^+/NKX6.1^+ pancreatic endoderm cells were produced from iPS cells (585A1 line) or ES cells (KhES-3 line) on a 6-well plate using the method by Toyoda et al. (Toyoda T, et al. Stem Cell Reports 2017). Briefly, the undifferentiated cells above were seeded at 1×10^6/well on a 6-well plate coated with iMatrix-511 silk. The cells were cultured in RPMI to which an S1 culture medium (1×B-27 Supplement, 100 U/ml penicillin/streptomycin, 100 ng/ml activin A, and CHIR99021 (Day 1: 3 μM, Days 2 and 3: 1 μM, and Day 4: 0 μM)) had been added for 4 days, in an S2 culture medium (improved MEM to which 0.5×B-27 Supplement, 100 U/ml penicillin/streptomycin, and 50 ng/ml KGF/FGF7 had been added) for 5 days, and in an S3 culture medium (improved MEM to which 0.5×B-27 Supplement, 100 U/ml penicillin/streptomycin, 50 ng/ml KGF/FGF7, 0.2 μM LDN-193189, 0.1 μM SANT-1, and 10 nM TTNPB had been added) for 2 days. The cells were detached from the 6-well plate using trypsin, and were reseeded on a 6-well plate coated with iMatrix-511 silk at 1.5×10^6/well using the S3 culture medium again. […] (5) The cells were suspended in improved MEM (containing 10 μM Y-27632, 0.5×B-27 Supplement, and 100 U/ml penicillin/streptomycin), and were counted. […]

[3] = test system: pancreatic endoderm cells after expansion culture; experiment: Induction of differentiation into β-like cells after expansion culture; assay type: cell-based
Description: After the expansion culture, the differentiation into β-like cells was induced using the method by Kimura et al. (Non Patent Literature 1) with a portion thereof being modified. Briefly, pancreatic endoderm cells were detached from a 6-well plate using trypsin, and were then suspended in the S4 culture medium at 3×10^5 cells/ml. The cells were seeded on a V-bottomed 96-well plate at 3×10^4 cells/100 μl/well. […] The induction of differentiation of pancreatic endoderm cells that had been repeatedly passaged 5 times using the expansion culture method with “Y-27632+DMSO” or “Y-27632+ALK5i+RA” into β-like cells was promoted. Then, the efficiency of induction into β-like cells was compared with that of a cell cluster obtained by inducing pancreatic endoderm cells that had not been passaged into B-like cells.

C[C@@H](N)[C@H]1CC[C@H](C(=O)Nc2ccncc2)CC1 [Y-27632]
ratio of the pancreatic endoderm cells (NKX6.1-positive) ([1]; 50 μM, 1 week, FIG. 2-C): most effective
ratio of β gal-positive cells (senescent cells) ([1]; 1 week, FIG. 2-D): exhibited an effect of reducing the ratio of β gal-positive cells
concentration most suitable for the proliferation ([1]; FIG. 2-B): 50 µM
number of NKX6.1-positive cells (pancreatic endoderm cells) ([1]; culture for 1 week, 24-well plate, FIG. 2-B): significantly increased
expansion culture of the pancreatic endoderm cells ([2]; FIG. 4-H): similarly possible
cell (nuclear) shape ([2]; Y-27632 10 μM, passaged 5 times (5 weeks), FIGS. 5-B and 5-C): changed their shape (elongated elliptical shape)
potential to differentiate into β-like cells ([3]; after 2 rounds of expansion culture with Y-27632 50 μM, FIG. 4-G): had a potential to differentiate
efficiency of induction to β-like cells on repeated expansion culture ([3]; culture medium for expansion culture with Y-27632): tended to gradually decrease
